# Test results taken from patent US20130267494A1, “1,4-OXAZEPANE DERIVATIVES” (priority 2010, published 2013).
# Where a name gives a salt, the structure may show the parent alone.
# Key:
# [1] = biological target: T1, human dopamine transporter (Homo sapiens, UniProt Q01959); assay: Inhibitory action on human dopamine transporter ([3H]-dopamine uptake in CHO cells); type: cell-based; details: CHO, relative to inhibitory activity of 100 μM Nomifensine as 100%, read-out: inhibitory rate (%); for inhibition at 1 µM: compound 1 μM
# T1 construct: expressed in transfected cells
# T1 sequence (Q01959 whole entry): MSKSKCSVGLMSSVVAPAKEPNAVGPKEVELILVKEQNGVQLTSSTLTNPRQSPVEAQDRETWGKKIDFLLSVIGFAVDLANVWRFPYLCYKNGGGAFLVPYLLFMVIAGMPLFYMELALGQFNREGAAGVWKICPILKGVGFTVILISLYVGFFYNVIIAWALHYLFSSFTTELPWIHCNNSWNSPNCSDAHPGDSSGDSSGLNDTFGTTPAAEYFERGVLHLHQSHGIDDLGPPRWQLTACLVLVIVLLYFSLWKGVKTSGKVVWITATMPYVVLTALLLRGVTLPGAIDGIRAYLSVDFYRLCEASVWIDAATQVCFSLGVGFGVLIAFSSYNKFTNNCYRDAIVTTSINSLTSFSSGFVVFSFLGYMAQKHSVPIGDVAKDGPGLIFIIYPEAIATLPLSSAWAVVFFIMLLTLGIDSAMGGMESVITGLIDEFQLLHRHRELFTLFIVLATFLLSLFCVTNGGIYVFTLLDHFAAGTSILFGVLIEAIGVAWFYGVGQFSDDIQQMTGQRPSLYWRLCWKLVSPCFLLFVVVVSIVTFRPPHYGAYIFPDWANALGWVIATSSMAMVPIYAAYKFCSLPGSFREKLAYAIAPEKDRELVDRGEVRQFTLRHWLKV
# In short: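 CHO-K1 cells stably expressing human dopamine transporter, exposed to compound at 10 μM or 1 μM in HEPES-buffered saline with 0.5% BSA. [3H]-dopamine uptake measured over 60 min by scintillation counting. Activity expressed relative to 100 μM nomifensine as 100%.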
# SD female rats = assay: Measurement of urethral resistance increasing effect (leak point pressure, oral administration); type: in vivo, rat
# Method: The urethral resistance increasing effect in rat was measured by a modified method of Matsumoto et al. (WO2009/063992) as follows. That is, SD female rats (CLEA Japan, Inc.) were anesthetized with isoflurane (1.0%; Abbott), and the spinal cord was transected at Th8-9 to avoid the voiding reflex. After laparotomy, an intravesical pressure measurement catheter and a saline infusion catheter (PE-100; Clay Adams) were inserted into the bladder. Thereafter, the abdomen of the rat was closed with aronalpha A “Sankyo” (Daiichi Sankyo). The rat with an inserted catheter was placed in a Bollman cage (KN-326 Bollman cage TYPE III; Natsume). The intravesical pressure measurement catheter was connected to a computer via a pressure transducer (DX-100; Nihon Koden), an amplifier (RPM-6008M; Nihon Koden/303638; SAN-EI), and a multi-channel data analyzer (MP150/MP100; Biopack), and changes in the intravesical pressure were recorded on a hard disc at a frequency of 100 samples/sec. The saline infusion catheter was connected to a 50 mL syringe (Terumo) filled with saline colored with Evans Blue (Wako). The saline was infused into the bladder from the 50 mL syringe filled with saline at a rate of 0.1 mL/sec by using an infusion pump (Kds100; KD Scientific). When the saline leaked from the urethral orifice, infusion was discontinued, and the saline in the bladder was released. The maximum pressure observed during infusion of saline into the bladder and leakage thereof was taken as an LPP (Leak point pressure) value. The measurement was repeated until the LPP value was stabilized, and an average of continuous three stable LPP values was taken as the result. In addition, the measurement of drug effect was started 1 hr after the animal was placed in the Bollman cage. The LPP value (Pre value) was measured, a drug was orally administered, and the measurement of LPP value (Post value) was again started 15 min, 30 min, 1 hr, 2 hr and 4 hr after administration. The urethral resistance increasing effect by the drug was shown by the difference between the LPP value (Post value) and LPP value (Pre value). The drug was orally administered at 2.0 mL/kg, using 0.5% methylcellulose as a vehicle. For detection of a significant difference in the urethral resistance increasing effect by the drug as compared to the vehicle, the following method was used. For comparison of 3 or more groups, the Williams' test was used for a parametric test, and the Shirley-Williams' test was used for a non-parametric test. For comparison of 2 groups, the Student's t-test was used for a parametric test, and the […] was used for a non-parametric test.
structure (smiles),measurement,setting,value
"CC(=O)NC[C@H]1CNCCO[C@@H]1c1ccc(Cl)c(Cl)c1 (racemic) [Example 6, N-{[(6RS,7SR)-7-(3,4-dichlorophenyl)-1,4-oxazepan-6-yl]methyl}acetamide monohydrochloride]",inhibition at 1 µM,[1],33%
same,inhibition at 10 µM,[1]; compound 10 μM,84%
"O=c1[nH]c(-c2cccn(C[C@@H]3CNCCO[C@H]3c3ccc(Cl)c(Cl)c3)c2=O)no1 [Example 31, 1-{[(6S,7R)-7-(3,4-dichlorophenyl)-1,4-oxazepan-6-yl]methyl}-3-(5-oxo-4,5-dihydro-1,2,4-oxadiazol-3-yl)pyridin-2(1H)-one monohydrochloride]",urethral resistance increasing effect (cmH2O),"SD female rats; 1.0 mg/kg oral, 15 min later",6.7 ± 2.5 cmH2O
same,urethral resistance increasing effect (cmH2O),"SD female rats; 1.0 mg/kg oral, 30 min later",9.0 ± 3.8 cmH2O
same,urethral resistance increasing effect (cmH2O),"SD female rats; 3.0 mg/kg oral, 15 min later",13.2 ± 3.8 cmH2O
same,urethral resistance increasing effect (cmH2O),"SD female rats; 3.0 mg/kg oral, 30 min later",14.5 ± 3.6 cmH2O
same,urethral resistance increasing effect (cmH2O),"SD female rats; 10.0 mg/kg oral, 15 min later",16.2 ± 2.1 cmH2O
same,urethral resistance increasing effect (cmH2O),"SD female rats; 10.0 mg/kg oral, 30 min later",14.3 ± 2.2 cmH2O
same,inhibition at 1 µM,[1],33%
"CC(=O)NC[C@@H]1CNCCO[C@H]1c1ccc(Cl)c(Cl)c1 [Example 32, N-{[(6S,7R)-7-(3,4-dichlorophenyl)-1,4-oxazepan-6-yl]methyl}acetamide 0.5 fumarate]",urethral resistance increasing effect (cmH2O),"SD female rats; 10.0 mg/kg oral, 15 min later",18.3 ± 2.1 cmH2O
same,urethral resistance increasing effect (cmH2O),"SD female rats; 10.0 mg/kg oral, 30 min later",17.1 ± 3.2 cmH2O
same,inhibition at 1 µM,[1],34%
"COCC(=O)NC[C@@H]1CNCCO[C@H]1c1ccc(Cl)c(Cl)c1 [Example 33, N-{[(6S,7R)-7-(3,4-dichlorophenyl)-1,4-oxazepan-6-yl]methyl}-2-methoxyacetamide monohydrochloride]",urethral resistance increasing effect (cmH2O),"SD female rats; 10.0 mg/kg oral, 15 min later",21.8 ± 3.3 cmH2O
same,urethral resistance increasing effect (cmH2O),"SD female rats; 10.0 mg/kg oral, 30 min later",20.9 ± 3.4 cmH2O
same,inhibition at 1 µM,[1],35%
"CC(=O)N[C@@H]1CNCCO[C@H]1c1ccc(Cl)c(Cl)c1 [Example 36, N-[(6R,7S)-7-(3,4-dichlorophenyl)-1,4-oxazepan-6-yl]acetamide monofumarate]",urethral resistance increasing effect (cmH2O),"SD female rats; 10.0 mg/kg oral, 15 min later",15.0 ± 1.8 cmH2O
same,urethral resistance increasing effect (cmH2O),"SD female rats; 10.0 mg/kg oral, 30 min later",14.3 ± 1.8 cmH2O
same,inhibition at 1 µM,[1],53%
"NS(=O)(=O)N[C@@H]1CNCCO[C@H]1c1ccc(Cl)c(Cl)c1 [Example 37, N-[(6R,7S)-7-(3,4-dichlorophenyl)-1,4-oxazepan-6-yl]sulfamide monohydrochloride]",urethral resistance increasing effect (cmH2O),"SD female rats; 3.0 mg/kg oral, 15 min later",8.5 ± 1.4 cmH2O
same,urethral resistance increasing effect (cmH2O),"SD female rats; 3.0 mg/kg oral, 30 min later",7.6 ± 1.6 cmH2O
same,urethral resistance increasing effect (cmH2O),"SD female rats; 10.0 mg/kg oral, 15 min later",16.3 ± 1.2 cmH2O
same,urethral resistance increasing effect (cmH2O),"SD female rats; 10.0 mg/kg oral, 30 min later",17.2 ± 1.9 cmH2O
same,inhibition at 1 µM,[1],51%
"COCC(=O)NC[C@@H]1CNCCO[C@H]1c1ccc(Cl)c(F)c1 [Example 38, N-{[(6S,7R)-7-(4-chloro-3-fluorophenyl)-1,4-oxazepan-6-yl]methyl}-2-methoxyacetamide monohydrochloride]",urethral resistance increasing effect (cmH2O),"SD female rats; 0.3 mg/kg oral, 15 min later",4.2 ± 1.7 cmH2O
same,urethral resistance increasing effect (cmH2O),"SD female rats; 0.3 mg/kg oral, 30 min later",5.1 ± 1.7 cmH2O
same,urethral resistance increasing effect (cmH2O),"SD female rats; 1.0 mg/kg oral, 15 min later",12.9 ± 3.3 cmH2O
same,urethral resistance increasing effect (cmH2O),"SD female rats; 1.0 mg/kg oral, 30 min later",9.3 ± 1.6 cmH2O
same,urethral resistance increasing effect (cmH2O),"SD female rats; 3.0 mg/kg oral, 15 min later",18.0 ± 2.5 cmH2O
same,urethral resistance increasing effect (cmH2O),"SD female rats; 3.0 mg/kg oral, 30 min later",17.4 ± 2.4 cmH2O
same,urethral resistance increasing effect (cmH2O),"SD female rats; 10.0 mg/kg oral, 15 min later",21.6 ± 2.9 cmH2O
same,urethral resistance increasing effect (cmH2O),"SD female rats; 10.0 mg/kg oral, 30 min later",21.3 ± 3.3 cmH2O
same,inhibition at 1 µM,[1],11%
"[2H]C([2H])([2H])OCC(=O)NC[C@@H]1CNCCO[C@H]1c1ccc(Cl)c(F)c1 [Example 39, N-{[(6S,7R)-7-(4-chloro-3-fluorophenyl)-1,4-oxazepan-6-yl]methyl}-2-[(^2H3)methyloxy]acetamide monohydrochloride]",urethral resistance increasing effect (cmH2O),"SD female rats; 1.0 mg/kg oral, 15 min later",12.3 ± 2.2 cmH2O
same,urethral resistance increasing effect (cmH2O),"SD female rats; 1.0 mg/kg oral, 30 min later",8.7 ± 2.6 cmH2O
same,urethral resistance increasing effect (cmH2O),"SD female rats; 3.0 mg/kg oral, 15 min later",15.8 ± 1.7 cmH2O
same,urethral resistance increasing effect (cmH2O),"SD female rats; 3.0 mg/kg oral, 30 min later",14.1 ± 1.5 cmH2O
same,urethral resistance increasing effect (cmH2O),"SD female rats; 10.0 mg/kg oral, 15 min later",17.9 ± 1.8 cmH2O
same,urethral resistance increasing effect (cmH2O),"SD female rats; 10.0 mg/kg oral, 30 min later",17.1 ± 2.3 cmH2O
same,inhibition at 1 µM,[1],17%
"CCOCC(=O)NC[C@@H]1CNCCO[C@H]1c1ccc(Cl)c(F)c1 [Example 40, N-{[(6S,7R)-7-(4-chloro-3-fluorophenyl)-1,4-oxazepan-6-yl]methyl}-2-ethoxyacetamide monohydrochloride]",urethral resistance increasing effect (cmH2O),"SD female rats; 1.0 mg/kg oral, 15 min later",8.5 ± 1.9 cmH2O
same,urethral resistance increasing effect (cmH2O),"SD female rats; 1.0 mg/kg oral, 30 min later",8.6 ± 2.6 cmH2O
same,urethral resistance increasing effect (cmH2O),"SD female rats; 3.0 mg/kg oral, 15 min later",11.4 ± 1.9 cmH2O
same,urethral resistance increasing effect (cmH2O),"SD female rats; 3.0 mg/kg oral, 30 min later",12.8 ± 1.6 cmH2O
same,urethral resistance increasing effect (cmH2O),"SD female rats; 10.0 mg/kg oral, 15 min later",16.6 ± 2.0 cmH2O
same,urethral resistance increasing effect (cmH2O),"SD female rats; 10.0 mg/kg oral, 30 min later",17.2 ± 2.2 cmH2O
same,inhibition at 1 µM,[1],9%
"CC(C)OCC(=O)NC[C@@H]1CNCCO[C@H]1c1ccc(Cl)c(F)c1 [Example 41, N-{[(6S,7R)-7-(4-chloro-3-fluorophenyl)-1,4-oxazepan-6-yl]methyl}-2-(1-methylethoxy)acetamide monohydrochloride]",urethral resistance increasing effect (cmH2O),"SD female rats; 3.0 mg/kg oral, 15 min later",9.8 ± 3.8 cmH2O
same,urethral resistance increasing effect (cmH2O),"SD female rats; 3.0 mg/kg oral, 30 min later",9.6 ± 2.3 cmH2O
same,urethral resistance increasing effect (cmH2O),"SD female rats; 10.0 mg/kg oral, 15 min later",17.8 ± 1.6 cmH2O
same,urethral resistance increasing effect (cmH2O),"SD female rats; 10.0 mg/kg oral, 30 min later",16.1 ± 1.5 cmH2O
same,inhibition at 1 µM,[1],11%
"O=c1[nH]c(-c2cccn(C[C@@H]3CNCCO[C@H]3c3ccc(Cl)c(F)c3)c2=O)no1 [Example 43, 1-{[(6S,7R)-7-(4-chloro-3-fluorophenyl)-1,4-oxazepan-6-yl]methyl}-3-(5-oxo-4,5-dihydro-1,2,4-oxadiazol-3-yl)pyridin-2(1H)-one monohydrochloride]",urethral resistance increasing effect (cmH2O),"SD female rats; 3.0 mg/kg oral, 15 min later",8.4 ± 3.0 cmH2O
same,urethral resistance increasing effect (cmH2O),"SD female rats; 3.0 mg/kg oral, 30 min later",11.8 ± 2.8 cmH2O
same,urethral resistance increasing effect (cmH2O),"SD female rats; 10.0 mg/kg oral, 15 min later",13.9 ± 2.1 cmH2O
same,urethral resistance increasing effect (cmH2O),"SD female rats; 10.0 mg/kg oral, 30 min later",14.8 ± 0.9 cmH2O
same,inhibition at 1 µM,[1],15%
"O=C(O)c1cccn(C[C@@H]2CNCCO[C@H]2c2ccc(Cl)c(F)c2)c1=O [Example 44, 1-{[(6S,7R)-7-(4-chloro-3-fluorophenyl)-1,4-oxazepan-6-yl]methyl}-2-oxo-1,2-dihydropyridine-3-carboxylic acid monohydrochloride]",urethral resistance increasing effect (cmH2O),"SD female rats; 0.3 mg/kg oral, 15 min later",0.1 ± 2.5 cmH2O
same,urethral resistance increasing effect (cmH2O),"SD female rats; 0.3 mg/kg oral, 30 min later",2.2 ± 2.6 cmH2O
same,urethral resistance increasing effect (cmH2O),"SD female rats; 1.0 mg/kg oral, 15 min later",8.6 ± 2.6 cmH2O
same,urethral resistance increasing effect (cmH2O),"SD female rats; 1.0 mg/kg oral, 30 min later",9.8 ± 2.6 cmH2O
same,urethral resistance increasing effect (cmH2O),"SD female rats; 3.0 mg/kg oral, 15 min later",15.5 ± 3.7 cmH2O
same,urethral resistance increasing effect (cmH2O),"SD female rats; 3.0 mg/kg oral, 30 min later",13.7 ± 3.3 cmH2O
same,urethral resistance increasing effect (cmH2O),"SD female rats; 10.0 mg/kg oral, 15 min later",18.8 ± 1.5 cmH2O
same,urethral resistance increasing effect (cmH2O),"SD female rats; 10.0 mg/kg oral, 30 min later",16.4 ± 1.5 cmH2O
same,inhibition at 1 µM,[1],8%
"OC[C@H](O)[C@@H]1OCCNC[C@H]1c1ccc(Cl)c(Cl)c1 [Example 45, (1S)-1-[(6R,7R)-6-(3,4-dichlorophenyl)-1,4-oxazepan-7-yl]ethane-1,2-diol monohydrochloride]",urethral resistance increasing effect (cmH2O),"SD female rats; 0.3 mg/kg oral, 15 min later",6.4 ± 1.3 cmH2O
same,urethral resistance increasing effect (cmH2O),"SD female rats; 0.3 mg/kg oral, 30 min later",9.3 ± 3.3 cmH2O
same,urethral resistance increasing effect (cmH2O),"SD female rats; 1.0 mg/kg oral, 15 min later",10.0 ± 2.6 cmH2O
same,urethral resistance increasing effect (cmH2O),"SD female rats; 1.0 mg/kg oral, 30 min later",13.4 ± 1.2 cmH2O
same,urethral resistance increasing effect (cmH2O),"SD female rats; 3.0 mg/kg oral, 15 min later",16.9 ± 1.4 cmH2O
same,urethral resistance increasing effect (cmH2O),"SD female rats; 3.0 mg/kg oral, 30 min later",17.5 ± 2.8 cmH2O
same,urethral resistance increasing effect (cmH2O),"SD female rats; 10.0 mg/kg oral, 15 min later",21.0 ± 2.0 cmH2O
same,urethral resistance increasing effect (cmH2O),"SD female rats; 10.0 mg/kg oral, 30 min later",22.1 ± 2.0 cmH2O
same,inhibition at 1 µM,[1],52%
